# According to patent US20140088124A1, “IMIDAZOLE DERIVATIVES” (priority 2011, published 2014):
# Molecular target: T1, human DGAT1 enzyme expressed in Sf9 insect cells prepared as microsomes (Homo sapiens, UniProt O75907)
# T1 construct: made in house; host or cells: Sf9 insect cells (microsomes)
# T1 sequence (O75907 1-488): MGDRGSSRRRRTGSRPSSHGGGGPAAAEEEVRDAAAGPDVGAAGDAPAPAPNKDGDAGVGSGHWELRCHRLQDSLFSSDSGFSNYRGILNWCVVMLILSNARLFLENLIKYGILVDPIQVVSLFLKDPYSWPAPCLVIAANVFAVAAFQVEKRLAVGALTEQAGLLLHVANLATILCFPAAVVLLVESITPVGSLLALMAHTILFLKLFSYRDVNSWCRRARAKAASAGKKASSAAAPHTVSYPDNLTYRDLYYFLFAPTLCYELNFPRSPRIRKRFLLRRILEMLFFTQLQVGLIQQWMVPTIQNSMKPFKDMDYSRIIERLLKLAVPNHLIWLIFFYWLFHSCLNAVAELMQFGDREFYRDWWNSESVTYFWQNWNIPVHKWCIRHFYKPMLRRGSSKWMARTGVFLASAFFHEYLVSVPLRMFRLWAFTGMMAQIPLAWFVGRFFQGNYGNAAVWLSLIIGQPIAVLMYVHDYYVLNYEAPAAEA
# Experiment: in vitro assay to identify DGAT1 inhibitors ([14C]-palmitoyl-CoA, wheat germ agglutinin beads, TopCount)
# Type: biochemical
# Conditions: 2 hours at room temperature
# Protocol: If compounds 141-162 were assayed they were assayed as follows: the in vitro assay to identify DGAT1 inhibitors uses human DGAT1 enzyme expressed in Sf9 insect cells prepared as microsomes. The reaction is initiated by the addition of the combined substrates 1,2-dioleoyl-sn-glycerol and [^14C]-palmitoyl-Co A and incubated with test compounds and microsomal membranes for 2 hours at room temperature. The assay is stopped by adding 0.5 mg wheat germ agglutinin beads in assay buffer with 1% Brij-35 and 1% 3-cholamidopropyldimethyl-ammonio-1-propane sulfonate. Plates are sealed with TopSeal and incubated for 18 hours to allow the radioactive triglyceride product to come into proximity with the bead. Plates are read on a TopCount instrument.
# Percent inhibition was calculated as the percent of (test compound inhibition minus non-specific binding) relative to (total binding minus non-specific binding). IC50 values were determined by curve fitting the data to a Sigmoidal dose-response in GraphPad Prism utilizing the following equation:
# Y=A+(B−A)/(1+10̂((Log IC50−X))),
# where A and B are the bottom and top of the curve (highest and lowest inhibition), respectively, and X is the logarithm of concentration.
row,SMILES,IC50
1,Cc1ccc(C(=O)O)cc1OCC1CCN(c2ccc(-c3nc4cc(Cl)ccc4[nH]3)cn2)CC1 [Example 156],12 nM
2,O=C(O)c1ccccc1OCC1CCN(c2ccc(-c3nc4cc(C(F)(F)F)ccc4[nH]3)cn2)CC1 [Example 152],14 nM
3,"O=C(O)c1cc(F)ccc1OCC1CCN(c2ccc(-c3nc4cc(Cl)ccc4[nH]3)cn2)CC1 [Example 148, 2-[[1-[5-(6-chloro-1H-benzimidazol-2-yl)-2-pyridinyl]-4-piperidinyl]methoxy]-5-fluorobenzoic acid]",1070 nM
4,"COC(=O)c1cccc(OCC2CCN(c3ccc(-c4nc5cc(C(F)(F)F)ccc5[nH]4)cn3)CC2)c1 [Example 141, methyl 3-[[1-[5-[5-(trifluoromethyl)-1H-benzol[d]imidazol-2-yl]pyridine-2-yl]piperidin-4-yl]methoxy]benzoate]",2500 nM
5,"O=C(O)c1cccc(OCC2CCN(c3ccc(-c4nc5cc(C(F)(F)F)ccc5[nH]4)cn3)CC2)c1 [Example 142, 3-[[1-[5-[5-(trifluoromethyl)-1H-benzol[d]imidazol-2-yl]pyridine-2-yl]piperidin-4-yl]methoxy]benzoic acid]",13 nM
6,O=C(O)C1(COCC2CCN(c3ccc(-c4nc5cc(C(F)(F)F)ccc5[nH]4)cn3)CC2)CCC1 [Example 162],62 nM
7,COC(=O)c1ccccc1OCC1CCN(c2ccc(-c3nc4cc(C(F)(F)F)ccc4[nH]3)cn2)CC1 [Example 151],2700 nM
8,CC(C)(COCC1CCN(c2ccc(-c3nc4cc(Cl)ccc4[nH]3)cn2)CC1)C(=O)O [Example 159],108 nM
9,O=C(O)c1ccccc1OCC1CCN(c2ccc(-c3nc4cc(Cl)ccc4[nH]3)cn2)CC1 [Example 153],85 nM
10,Cc1ccc(C(=O)O)cc1OCC1CCN(c2ccc(-c3nc4cc(C(F)(F)F)ccc4[nH]3)cn2)CC1 [Example 157],15 nM
11,CC(C)(COCC1CCN(c2ccc(-c3nc4cc(C(F)(F)F)ccc4[nH]3)cn2)CC1)C(=O)O [Example 160],84 nM
12,"O=C(O)c1ccc(OCC2CCN(c3ccc(-c4nc5cc(Cl)ccc5[nH]4)cn3)CC2)cc1 [Example 150, 4-[[1-[5-(6-Chloro-1H-benzimidazol-2-yl)-2-pyridinyl]-4-piperidinyl]methoxy]benzoic acid]",67 nM
13,O=C(O)c1cccc(OCC2CCN(c3ccc(-c4nc5cc(Cl)ccc5[nH]4)cn3)CC2)c1 [Example 144],8 nM
14,O=C(O)C1(COCC2CCN(c3ccc(-c4nc5cc(Cl)ccc5[nH]4)cn3)CC2)CCC1 [Example 161],95 nM
15,COC(=O)c1cccc(OCC2CCN(c3ccc(-c4nc5cc(Cl)ccc5[nH]4)cn3)CC2)c1 [Example 143],1830 nM
16,O=C(O)c1ccc(F)cc1OCC1CCN(c2ccc(-c3nc4cc(C(F)(F)F)ccc4[nH]3)cn2)CC1 [Example 155],31 nM
17,O=C(O)c1ccc(F)cc1OCC1CCN(c2ccc(-c3nc4cc(Cl)ccc4[nH]3)cn2)CC1 [Example 154],58 nM
18,"O=C(O)c1cc(OCC2CCN(c3ccc(-c4nc5cc(Cl)ccc5[nH]4)cn3)CC2)cc(C(=O)O)c1 [Example 146, 5-((1-(5-(5-chloro-1H-benzo[d]imidazol-2-yl)pyridin-2-yl)piperidin-4-yl)methoxy)isophthalic acid]",18 nM
